Experimental data from patent US8252807B2, “Methods of inhibiting the interaction between S100 and the receptor for advanced glycation end-products” (Board of Regents, The University of Texas System, priority 2007, dated 2012).

What was measured:
S100P and RAGE = target: T1, S100P and RAGE (Homo sapiens, UniProt P25815); assay: Co-immunoprecipitation of S100P and RAGE from BxPC-3 cell lysates; format: binding; conditions: cromolyn 100 μM
T1 construct: endogenous in cells; host or cells: BxPC-3 pancreatic adenocarcinoma cell lysate
T1 sequence (P25815 1-95): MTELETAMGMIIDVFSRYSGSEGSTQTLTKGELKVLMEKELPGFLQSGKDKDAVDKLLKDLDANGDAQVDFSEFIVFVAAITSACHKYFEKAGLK
Procedure: Receptor for advanced glycation end products (RAGE) was identified in the immunoprecipitates by immunoblotting with a goat polyclonal anti-RAGE antibody and anti-S100P as an internal control. In the lower panel, one representative blot and densitometric analysis (means and 95% confidence intervals [CIs]) of three independent experiments is shown. *P<0.001, versus IP α-S100P without cromolyn.
For co-immunoprecipitation experiments, BxPC-3 cell lysates were incubated in the absence or presence of cromolyn (100 μM) at 4° C. overnight. S100P was immunoprecipitated using a mouse monoclonal anti-S100P antibody (Transduction Laboratories, San Diego, Calif.) for 6 hours at 4° C. and IgG-immobilized beads (Pierce Biotechnology, Inc. Rockford, Ill.). Antibody-associated proteins were electrophoresed on 10% polyacrylamide gels and electrophoretically transferred to nitrocellulose membranes. Membranes were blocked in PBS/5% milk overnight at 4° C. RAGE was detected using a goat polyclonal anti-RAGE antibody (1:200, Santa Cruz, Santa Cruz, Calif.), and S100P was detected using a goat polyclonal anti-S100P antibody (1:50, R & D systems, Minneapolis, Minn.) by immunoblotting as described in Arumugam, et al., S100P stimulates cell proliferation and survival via receptor for activated glycation end products (RAGE); J. Biol. Chem. 2004 Feb. 13; 279(7):5059-65. Briefly, membranes were incubated in primary antibody for 1 hour at room temperature followed by incubation with horseradish peroxidase-labeled secondary antibody for 30 minutes at room temperature. After a thorough wash in TBS-T buffer (1M Tris-HCL pH 8.3, 3M NaCl, 0.1% Tween-20), antibody-protein complexes were detected by using a chemiluminescent substrate (GE Healthcare Bio-Sciences Corp., Piscataway, N.J.). The intensity of the band was estimated (as density units) using densitometry (GS-250 Molecular Imaging System, Bio-Rad Laboratories, Richmond, Calif.). The experiment was repeated three times.

[1] = test system: NFκB promoter activity in BxPC-3 cells; assay: Luciferase assay for NFκB activity, BxPC-3; format: cell-based; conditions: for basal NFκB activity in BxPC-3 cells, mean: 5 hours, 0 μM mean=1.4×10^6
[2] = test system: NFκB activity in MPanc-96 cells; assay: S100P stimulated NFκB luciferase reporter, MPanc-96; format: cell-based, human; conditions: S100P 100 nM, compound 1 μM, 5 hours
Procedure: MPanc-96 pancreatic cancer cell lines stably expressing an NFκB luciferase reporter were examined for the effects of S100P, cromolyn and C5. Cells were plated at 5.0×10^3 cells/well, treated for 5 hours with 100 nM of S100P, with or without cromolyn and C5 (1 μM), and activity of a luciferase gene driven by the NFkB promoter was analyzed. P=0.05 C5 versus cromolyn. Two-tailed two-sample (unpaired) Student's t-tests were used to determine P values.

S100B with RAGE = S100B with RAGE (Homo sapiens, UniProt P04271); assay: S100B binding with RAGE ELISA (sRAGE coated plate)
Sequence of S100B with RAGE (P04271 whole entry, species assumed): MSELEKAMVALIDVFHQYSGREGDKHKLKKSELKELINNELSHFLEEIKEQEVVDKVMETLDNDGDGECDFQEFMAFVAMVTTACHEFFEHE
Text: After removing un-bound S100B by washing with detergent, bound S100B and RAGE complex was quantified by adding HRP labeled antibody against S100B.

O=C(O)c1cc(=O)c2c(OCC(O)COc3cccc4oc(C(=O)O)cc(=O)c34)cccc2o1 [cromolyn, disodium 1,3-bis[(2′-carboxylatochromon-5′-yl)oxy]-2-hydroxypropane]
co-immunoprecipitation of S100P and RAGE, difference control versus cromolyn (S100P and RAGE): 25640 density units
total amount of S100P immunoprecipitated (S100P and RAGE): no effect
co-immunoprecipitation of S100P and RAGE, mean (S100P and RAGE; control mean=34040): 8410 density units
basal NFκB activity in BxPC-3 cells, difference versus 0 μM ([1]; cromolyn 10 μM): 4.7×10^5 photons/sec
basal NFκB activity in BxPC-3 cells, mean ([1]; cromolyn 10 μM): 9.4×10^5 photons/sec
basal NFκB activity in BxPC-3 cells, difference versus 0 μM ([1]; cromolyn 100 μM): 5.9×10^5 photons/sec
basal NFκB activity in BxPC-3 cells, mean ([1]; cromolyn 100 μM): 8.2×10^5 photons/sec
NFκB activity in pancreatic cancer cells in vitro [2]: inhibit NFκB activity
interaction of S100B with RAGE (S100B with RAGE): inhibit the interaction of S100B with RAGE
